In US20170217982A1, “Compound isolated from Pseudolysimachion rotundum var. subintegrum, the composition comprising the same for treating allergic disease, inflammatory disease, asthma or chronic obstructive pulmonary disease and the use thereof” (YUNGJIN PHARMACEUTICAL CO., LTD, priority 2014, published 2017):

Tested on: COPD induced mice
Test: Anti-COPD effect in cigarette smoke + LPS COPD mouse model
Type: in vivo, C57BL/6N mouse
Details: 10 mg/kg p.o.
Experimental: In order to determine the anti-COPD effect of inventive compounds in COPD animal model, following test was performed by using COPD induced mice as disclosed in the literature (Bhaysar, T. et al., J. Chronic Obstr. […]. Dis., 2008, 3, 477-481). Specific pathogen-free male C57BL/6N mouse (about 22-24 g), aged 6 weeks, which were routinely screened serologically for relevant respiratory pathogens, were purchased from Koatech Co. (koatech.co.kr, Seoul, Korea) and bred allowing to access freely to feed (antibiotic free, Samyang Oil & Feed Corp., Korea) and water in breeding room controlling the temperature of 22±2° C., and humidity of 55±15% at the light-dark cycle for 12 hours and acclimated with the experimental environment for 1 week. 2 kinds of test samples, […] ingredient: Roflumilast, 10 mg/kg) were dissolved in 0.5% sodium carboxymethyl cellulose ([…], Sigma-Aldrich, USA) and used as test samples. KS534, and Rolflumilast (ROF 11-492, HETERO, India) were orally administrated to the mice, 1 hour before prior the intratracheal instillation (i.t.). 3R4F Kentuchy Reference Cigarettes ([…], USA) was used as a standard cigarette for generating a cigarette smoke. The cigarette containing 9.4 mg of tar, 11 mg of TPM (total particle matter) and 12 mg of carbon monooxide per piece, was used after harmonizing with the temperature of 22±1° C. and humidity of 60±2% after opening for 48-72 hrs. The exposure of cigarette smoke was performed by using a cigarette smoke generator (DBL Co. Ltd., dhbiolink.com, Korea). The mice were divided into five groups: normal (NC), COPD (cigarette smoke with LPS intranasal instillation), Rof (10 mg/kg of roflumilast, p.o.+cigarette smoke with LPS intranasal instillation), and KS534-15 and 30 (15 mg/kg and 30 mg/kg of KS534, p.o.+cigarette smoke with LPS instillation, respectively). Exposure of cigarette smoke (one puff/min, 35 ml puff volume over 2 s, every 60 s, 8 cigarettes per day) was conducted using a cigarette smoke generator. The mice received 1 h of cigarette smoke exposure in an exposure chamber (50 cm×30 cm×30 cm) for 3 days. Roflumilast and piscroside C were administered to mice by oral lavage 1 h before cigarette smoke exposure for 3 days. LPS was intranasally instilled ([…] dissolved in 50 μL distilled water) under anesthesia 1 h after the final exposure to cigarette smoke. After the end of experiment, the blood, BALF, and pneumonocyte of each rat were isolated and collected to test. After finishing the experiment, rats were anaesthetized with Zoleti150 (3VX9, Virbac, France, p.o) and the blood was delivered through caudal veins. In order to isolate BALF from lung, the bronchus of right lung was ligated with suture and then performed to tracheostomy. IV-use catheter (16 GA, 3S-Cath, Dukwoo, Korea) was put into the bronchus, and both of bronchus and catheter (16 GA, 3S-Cath, Dukwoo, Korea) were fixed with suture. The injector containing 1 ml of DPBS 0.7 (Dubecco's phosphate-buffered saline, Invitrogen, USA) was connected thereto and DPBS was forced to circulate three times to isolate BALF. The right lung ligated with suture was isolated, fixed with 10% neutral formalin solution, and the remaining lung tissue was reserved in refrigerator at -70° C. The isolated BALF was centrifuged for 15 mins at 1500 rpm to prepare cell pellet and the supernatant was reserved in refrigerator at -70° C. for cytokine analysis. The cell pellet was suspended in DPBS, and the cell was attached to a slide glass using by cytospin centrifuge (CS03270047, Hanil, Korea). Diff-Quik staining (ZS1003, Sysmex, Japan) was performed and the cell was observed by optical microscopy (DM1000, Leica, German) to count the number of immunocyte in each test sample. The level of ROS in BALF isolated from the mice was determined by DCF-DA (dihydrodo chloro fluoresce indiacetate, 35854, Sigma-Aldrich, USA) and the final concentration of DCF-DA was adjusted to 20 μm in 200 μL to incubate 30 mins. […]

SMILES: O=C(Nc1c(Cl)cncc1Cl)c1ccc(OC(F)F)c(OCC2CC2)c1 [Roflumilast, reference compound]
- level of proteins in BALF compared with COPD induced group (COPD mice): significant reduction
- reduced level of ROS in BALF comparing with COPD induced group (COPD mice): about 22.2%
- reduced level of neutrophils in BALF comparing with COPD induced group (COPD mice): about 21.1%
- invasion of the inflamed cells in lung tissue (histology) (COPD mice (FIG. 14)): significantly reduced
- level of IL-6 in BALF compared with COPD induced group (COPD mice, ELISA): significant reduction
- level of TNF-alpha in BALF compared with COPD induced group (COPD mice, ELISA): significant reduction
